For this experiment, the system named is muscle progenitors derived from DMD hiPSC. Put plainly: Myotube assay: total myotube area per well (alpha-actinin staining). Format: cell-based, human. Particulars: Homo sapiens, Myotube, 72 h, DMD or WT cell source not given; for Emax: efficacy, MA = normalized Myotube Area, 3 days incubation; for EC50: myogenic activity, half-maximal generation of myotubes, 10 points dose-response 1.5 nM to 30 µM, 3 days. The protocol:
An in vitro assay for assessing the efficacy of compounds for use in treating, ameliorating, delaying, curing and/or preventing a disease or condition associated with muscle cells and/or satellite cells is described in example 78. Herein, the generation of myotubes and satellite cells after adding a compound to a myotube assay workflow is assessed. Said myotube assay workflow is derived from wild-type or DMD human induced pluripotent stem cells (WT hiPSC or DMD hiPSC). Before the addition of said compound, the assay comprises satellite-like cells, but no significant amount of myotubes.
The efficacy of said compound for use in treating, ameliorating, delaying, curing and/or preventing a disease or condition associated with muscle cells and/or satellite cells is positively correlated with the generation of myotubes (i.e. the increase of the area occupied by myotubes on the assay) and/or satellite cells (i.e. the increase of the number of satellite cells) in the assay after adding said compound. The generation of myotubes by the addition of said compound is expressed as the EC50 value, the concentration of said compound that corresponds with the half-maximal generation of myotubes, and the MA (normalized myotube area) value, the normalized area occupied by generated myotubes on the assay. […] Since muscle cells are formed from myotubes during myogenesis, the generation of myotubes in the assay is a good indicator of the ability of said compound to induce the formation of functional muscle cells in vivo. The number of satellite cells is measured as the percentage of Pax7 positive cells, relative to the total number of cells in the assay, as shown in Figure 3. The percentage of Pax7 is a good indicator of the ability of said compound to induce the formation of satellite cells which are able to play a role in muscle repair and regeneration in vivo.
DMD human induced pluripotent stem cells (hereafter "DMD hiPSC"), generated from the NCRM-1 hiPSC WT cell line by gene editing, or WT human induced pluripotent stem cells (hereafter "WT hiPSC"), being NCRM-1 hiPSC wt cell line, have been differentiated according to Chal et al. 2015, 2016, to produce muscle progenitors (hereafter "hMP"). The hMP population contains satellite-like cells (i.e Pax7-positive cells) and satellite cells' progenies (i.e. Myogenin-positive cells).
Figure 1 provides an example of a Myotube assay workflow. At day 0, hMP are thawed and 3.1 million cells are plated into a T75-flask coated with hESC-qualified Matrigel™ (Corning) in SkGM proliferating medium (PromoCells), supplemented with 5 µM Y-27632 (Tocris Bioscience). On day 2, SkGM proliferating medium is refreshed. On day 4, hMP are harvested and transferred into a 384-well plate coated with collagen type I at a density of 3500 cells/well in a DMEM-based medium, containing 5% of knockout serum replacement (Gibco), 1% PenStrep (Gibco), 1% MEM NEAA (Gibco) and 0.1 mM 2-mercaptoethanol (Gibco) (hereafter "K5 medium") and 5 µM Y-27632. Compounds to be tested are then added in the medium and incubated for 3 days at 37°C. On day 7, cells are fixed and immunostained. For example, myotubes (alpha-actinin staining) and satellite-like (Pax7 staining) cells can be analyzed for total myotube area per well or Pax7-positive cell quantification.
DMD hMP were put in the Myotube assay according to the workflow described in Example 2.1. In particular, compound (i) was added at concentrations ranging from 1.5 nM to 30 µM, starting from day 4. hMP were cultivated for three more days in presence of compound (i), then fixed and analyzed for quantification of total myotube area per well. Duplicates of each condition were averaged.

Take `Cc1cc(NC(=O)Nc2ccc(Oc3ccnc4[nH]c(=O)cnc34)cc2F)n(-c2ccccc2)n1` [(a), 1-(2-fluoro-4-((3-oxo-3,4-dihydropyrido[2,3-b]pyrazin-8-yl)oxy)phenyl)-3-(3-methyl-1-phenyl-1 H-pyrazol-5-yl)urea]: the Emax lay within 25 to 50% and the concentration for a half-maximal effect (EC50) was 500 to 1000 nM.

In turn, `CNC(=O)c1ccc(Oc2cccc(NC(=O)Nc3cc(C(C)(C)C)nn3-c3ccccc3)c2)cn1` [(ab), 5-(3-(3-(3-(tert-butyl)-1-phenyl-1H-pyrazol-5-yl)ureido)phenoxy)-N-methylpicolinamide] displayed a maximal effect (Emax) of 50 to 75% and an EC50 of 500 to 1000 nM.

`CC(C)(C)c1cc(NC(=O)Nc2ccc(Oc3ccccc3)cc2F)n(-c2ccccc2)n1` [(ac), 1-(3-(tert-butyl)-1-phenyl-1H-pyrazol-5-yl)-3-(2-fluoro-4-phenoxyphenyl)urea] gave an Emax of 50 to 75% and an EC50 of 1000 to 5000 nM.

Consider `CC(C)(C)c1cc(NC(=O)Nc2ccc(Oc3ccncc3)cc2F)n(-c2ccccc2)n1` [(ad), 1-(3-(tert-butyl)-1-phenyl-1H-pyrazol-5-yl)-3-(2-fluoro-4-(pyridin-4-yloxy)phenyl)urea], for which the Emax is 25 to 50% and the concentration giving a half-maximal response (EC50) is 500 to 1000 nM.

In turn, `CC(=O)Nc1cc(Oc2ccc(NC(=O)Nc3cc(C(C)(C)C)nn3-c3ccccc3)c(F)c2)ccn1` [(ae), N-(4-(4-(3-(3-(tert-butyl)-1-phenyl-1H-pyrazol-5-yl)ureido)-3-fluorophenoxy)pyridin-2-yl)acetamide] returned a maximal response (Emax) of 50 to 75% and a half-maximal effective concentration (EC50) of at least 5000 nM.

`CC(C)(C)c1cc(NC(=O)Nc2ccc(Oc3ccc(F)cc3)cc2F)n(-c2ccccc2)n1` [(af), 1-(3-(tert-butyl)-1-phenyl-1 H-pyrazol-5-yl)-3-(2-fluoro-4-(4-fluorophenoxy)phenyl)urea] yielded a maximum response (Emax) of 25 to 50% and an EC50 of 1000 to 5000 nM.

`CNC(=O)c1cc(Oc2ccc(NC(=O)Nc3cc(C(C)(C)C)nn3-c3ccc4ncccc4c3)c(SC)c2)ccn1` [(ag), 4-(4-(3-(3-(tert-butyl)-1-(quinolin-6-yl)-1H-pyrazol-5-yl)ureido)-3-(methylthio)phenoxy)-N-methylpicolinamide] showed an Emax of at least 75% and an EC50 of 1000 to 5000 nM.

`CSc1cc(Oc2ccnc3[nH]c(=O)cnc23)ccc1NC(=O)Nc1ncc(C(C)(C)C)s1` [(ah), 1-(5-(tert-butyl)thiazol-2-yl)-3-(2-(methylthio)-4-((3-oxo-3,4-dihydropyrido[2,3-b]pyrazin-8-yl)oxy)phenyl)urea]: the maximal effect (Emax) was at least 75% and the EC50 is at least 5000 nM.

Regarding `CNC(=O)c1cncc(Oc2ccc(NC(=O)Nc3cc(C(C)(C)C)nn3-c3ccccc3)c(SC)c2)c1` [(ai), 5-(4-(3-(3-(tert-butyl)-1-phenyl-1H-pyrazol-5-yl)ureido)-3-(methylthio)phenoxy)-N-methylnicotinamide], the EC50 lay in the range of 500 to 1000 nM.

As for `CC(C)(C)c1cc(NC(=O)Nc2ccc(Oc3ccnc4[nH]c(=O)cnc34)cc2Cl)n(-c2ccccc2)n1` [(ak), 1-(3-(tert-butyl)-1-phenyl-1H-pyrazol-5-yl)-3-(2-chloro-4-((3-oxo-3,4-dihydropyrido[2,3-b]pyrazin-8-yl)oxy)phenyl)urea], the Emax was at least 75% and the EC50 was at least 5000 nM.

`Cc1cc(Oc2ccnc3[nH]c(=O)cnc23)ccc1NC(=O)Nc1cc(C(C)(C)C)nn1-c1ccccc1` [(al), 1-(3-(tert-butyl)-1-phenyl-1 H-pyrazol-5-yl)-3-(2-methyl-4-((3-oxo-3,4-dihydropyrido[2,3-b]pyrazin-8-yl)oxy)phenyl)urea]: the maximum response (Emax) is at least 75% and the EC50 was at least 5000 nM.

For the molecule `CCSc1cc(Oc2ccnc3[nH]c(=O)cnc23)ccc1NC(=O)Nc1cc(C(C)(C)C)nn1-c1ccccc1` [(am), 1-(3-(tert-butyl)-1-phenyl-1 H-pyrazol-5-yl)-3-(2-(ethylthio)-4-((3-oxo-3,4-dihydropyrido[2,3-b]pyrazin-8-yl)oxy)phenyl)urea], the maximum response (Emax) is at least 75% and the EC50 is under 500 nM.

For `CSc1cc(Oc2ccnc3c2CCC(=O)N3)ccc1NC(=O)Nc1cc(C(C)(C)C)nn1-c1ccccc1` [(an), 1-(3-(tert-butyl)-1-phenyl-1H-pyrazol-5-yl)-3-(2-(methylthio)-4-((7-oxo-5,6,7,8-tetrahydro-1,8-naphthyridin-4-yl)oxy)phenyl)urea], the Emax is at least 75% and the EC50 was under 500 nM.

On to `CSc1cc(Oc2ccnc3[nH]c(=O)cnc23)ccc1NC(=O)Nc1cc(C(C)(C)C)nn1-c1ccc(Cl)cc1` [(ao), 1-(3-(tert-butyl)-1-(4-chlorophenyl)-1H-pyrazol-5-yl)-3-(2-(methylthio)-4-((3-oxo-3,4-dihydropyrido[2,3-b]pyrazin-8-yl)oxy)phenyl)urea], for which the maximum response (Emax) was at least 75% and the concentration for a half-maximal effect (EC50) is at least 5000 nM.

`CNC(=O)c1ccc(Oc2ccc(NC(=O)Nc3cc(C(C)(C)C)nn3-c3ccccc3)c(SC)c2)cn1` [(ap), 5-(4-(3-(3-(tert-butyl)-1-phenyl-1H-pyrazol-5-yl)ureido)-3-(methylthio)phenoxy)-N-methylpicolinamide] yielded an Emax of 25 to 50% and a half-maximal effective concentration (EC50) of 500 to 1000 nM.

`CSc1cc(Oc2ccnc(NC(C)=O)c2)ccc1NC(=O)Nc1cc(C(C)(C)C)nn1-c1ccccc1` [(aq), N-(4-(4-(3-(3-(tert-butyl)-1-phenyl-1H-pyrazol-5-yl)ureido)-3-(methylthio)phenoxy)pyridin-2-yl)acetamide] registered an Emax of at least 75% and an EC50 of 500 to 1000 nM.

With `CSc1cc(Oc2ccnc3[nH]c(=O)cnc23)ccc1NC(=O)Nc1cc(C(C)(C)C)nn1-c1ccccn1` [(ar), 1-(3-(tert-butyl)-1-(pyridin-2-yl)-1H-pyrazol-5-yl)-3-(2-(methylthio)-4-((3-oxo-3,4-dihydropyrido[2,3-b]pyrazin-8-yl)oxy)phenyl)urea], the maximal response (Emax) was at least 75% and the concentration for a half-maximal effect (EC50) is at least 5000 nM.

`CSc1cc(Oc2ccnc3[nH]c(=O)cnc23)ccc1NC(=O)Nc1cc(C(C)(C)C)nn1-c1cccc(Cl)c1` [(as), 1-(3-(tert-butyl)-1-(3-chlorophenyl)-1H-pyrazol-5-yl)-3-(2-(methylthio)-4-((3-oxo-3,4-dihydropyrido[2,3-b]pyrazin-8-yl)oxy)phenyl)urea] yielded an Emax of at least 75% and a concentration for a half-maximal effect (EC50) of under 500 nM.

Regarding `CSc1cc(Oc2ccnc3[nH]c(=O)cnc23)ccc1NC(=O)Nc1cc(C(C)(C)C)nn1-c1ccccc1Cl` [(at), 1-(3-(tert-butyl)-1-(2-chlorophenyl)-1H-pyrazol-5-yl)-3-(2-(methylthio)-4-((3-oxo-3,4-dihydropyrido[2,3-b]pyrazin-8-yl)oxy)phenyl)urea], the maximal effect (Emax) is at least 75% and the EC50 is at least 5000 nM.

The molecule `CSc1cc(Oc2ccnc3c2ncc(=O)n3C)ccc1NC(=O)Nc1cc(C(C)(C)C)nn1-c1ccccc1` [(au), 1-(3-(tert-butyl)-1-phenyl-1H-pyrazol-5-yl)-3-(4-((4-methyl-3-oxo-3,4-dihydropyrido[2,3-b]pyrazin-8-yl)oxy)-2-(methylthio)phenyl)urea] came in with a maximal effect (Emax) of at least 75% and an EC50 of at least 5000 nM.

As for `COc1ccccc1-n1nc(C(C)(C)C)cc1NC(=O)Nc1ccc(Oc2ccnc3[nH]c(=O)cnc23)cc1SC` [(av), 1-(3-(tert-butyl)-1-(2-methoxyphenyl)-1H-pyrazol-5-yl)-3-(2-(methylthio)-4-((3-oxo-3,4-dihydropyrido[2,3-b]pyrazin-8-yl)oxy)phenyl)urea], the Emax was at least 75%.

As for `COc1cccc(-n2nc(C(C)(C)C)cc2NC(=O)Nc2ccc(Oc3ccnc4[nH]c(=O)cnc34)cc2SC)c1` [(aw), 1-(3-(tert-butyl)-1-(3-methoxyphenyl)-1 H-pyrazol-5-yl)-3-(2-(methylthio)-4-((3-oxo-3,4-dihydropyrido[2,3-b]pyrazin-8-yl)oxy)phenyl)urea], the Emax was at least 75% and the half-maximal effective concentration (EC50) is 500 to 1000 nM.

Usually Emax stands for the size of the effect at its maximum, as opposed to the concentration needed. As a reminder, the EC50 is the concentration that produces a half-maximal response. A high value points to a need for much substance.
